The values that follow are results of earlier work, collected in patent publication US20120258914A1, “COACERVATION PROCESS” (Alkermes, Inc., priority 2007, published 2012).

On to exendin-4, for which, where the note is “in the presence of elevated blood glucose concentrations, but not during hypoglycemia”, the secretion of insulin result is recorded as “stimulate secretion of insulin”. Also, where the note is “in vivo”, the “food intake and body weight” value is “affect food intake and body weight”; the gastric emptying entry is recorded as “slow gastric emptying”; the glucagon secretion result is given as “suppress glucagon secretion”.
